Marks after values point to notes of the source that are not given here.
Legend:
Format in all cases: in vivo
[1] = system: Puccinia recondite f. sp. tritici; assay: Test E2: preventive spray on wheat seedlings, visual disease rating (wheat leaf rust)
From the text: (§1) General protocol for preparing test suspensions for Tests A-F: the test compounds were first dissolved in acetone in an amount equal to 3% of the final volume and then suspended at the desired concentration (in ppm) in acetone and purified water (50/50 mix by volume) containing 250 ppm of the surfactant Trem® 014 (polyhydric alcohol esters). The resulting test suspensions were then used in Tests A-F. Spraying a 200 ppm test suspension to the point of run-off on the test plants was the equivalent of a rate of 800 g/ha. Unless otherwise indicated, the rating values indicate a 200 ppm test suspension was used. (An asterisk “*” next to the rating value indicates a 40 ppm test suspension was used.)
The test suspension was sprayed to the point of run-off on wheat seedlings. The following day the seedlings were inoculated with a spore suspension of Puccinia recondite f. sp. tritici (the causal agent of wheat leaf rust) and incubated in a saturated atmosphere at 20° C. for 24 h, and then moved to a growth chamber at 20° C. for 7 days, after which time visual disease ratings were made.
(§2) Results for Tests A-F are given in Table A. In the Table, a rating of 100 indicates 100% disease control and a rating of 0 indicates no disease control (relative to the controls). A dash (-) indicates no test results. An asterisk “*” next to the rating value indicates a 40 ppm test suspension was used.

[2] = system: Botrytis cinerea; assay: Test A: preventive spray on tomato seedlings, visual disease rating (tomato Botrytis)
From the text: as §1
(§3) The test suspension was sprayed to the point of run-off on tomato seedlings. The following day the seedlings were inoculated with a spore suspension of Botrytis cinerea (the causal agent of tomato Botrytis) and incubated in saturated atmosphere at 20° C. for 48 h, and then moved to a growth chamber at 24° C. for 3 days, after which time visual disease ratings were made.
as §2

[3] = system: Septoria tritici; assay: Test D: preventive spray on wheat seedlings, visual disease rating (wheat leaf blotch)
From the text: as §1
as §3, with “wheat” for “tomato”, “Septoria tritici” for “Botrytis cinerea”, “wheat leaf blotch)” for “tomato Botrytis)”, “24°” for “20°”, “20°” for “24°”, “19” for “3”
as §2

[4] = system: Blumeria graminis f. sp. tritici; assay: Test F: preventive spray on wheat seedlings, visual disease rating (wheat powdery mildew)
From the text: as §1
The test suspension was sprayed to the point of run-off on wheat seedlings. The following day the seedlings were inoculated with a spore dust of Blumeria graminis f. sp. tritici, (also known as Erysiphe graminis f. sp. tritici, the causal agent of wheat powdery mildew) and incubated in a growth chamber at 20° C. for 8 days, after which time visual disease ratings were made.
as §2

[5] = no asterisk: standard test suspension, not 40 ppm
[6] = no asterisk: standard test suspension, not 40 ppm, 100 = 100% disease control, 0 = none
[7] = asterisk: 40 ppm test suspension

Structure (SMILES) | Test E2 rating (% disease control) [1, 5] [%] | Test A rating (% disease control) [2, 6] [%] | Test D rating (% disease control) [3, 5] [%] | Test F rating (% disease control) [4, 5] [%] | Test E2 rating (% disease control) [1, 7] | Test D rating (% disease control) [3, 7] | Test A rating (% disease control) [2, 7] | Test F rating (% disease control) [4, 7]
Cn1ncc(C(O)c2ccc(F)cc2Cl)c1-c1c(F)cccc1F (stereo not shown) [compound 130] | 100 | 100 | 100 | 100 |  |  |  | 
Cn1nc(Br)c(C(O)c2ccc(F)cc2F)c1-c1c(F)cccc1Cl (stereo not shown) [compound 131] | 100 | 98 | 100 | 98 |  |  |  | 
Cn1nc(Br)c(C(O)c2ccc(F)cc2Br)c1-c1c(F)cccc1Cl (stereo not shown) [compound 132] |  | 0 |  | 100 | 99* % | 100* % |  | 
Cn1nc(Cl)c(C(O)c2ccc(F)cc2F)c1-c1c(F)cccc1Cl (stereo not shown) [compound 133] | 100 | 100 | 100 | 99 |  |  |  | 
Cn1nc(Cl)c(C(O)c2ccc(F)cc2Br)c1-c1c(F)cccc1Cl (stereo not shown) [compound 134] | 100 | 100 | 100 | 99 |  |  |  | 
Cn1nc(Cl)c(C(O)c2ccc(F)cc2Cl)c1-c1c(F)cccc1Cl (stereo not shown) [compound 135] | 100 | 100 | 100 | 99 |  |  |  | 
Cn1nc(Cl)c(C(O)c2ccc(F)cc2Br)c1-c1c(F)cccc1F (stereo not shown) [compound 136] | 100 | 100 | 100 | 100 |  |  |  | 
Cn1nc(Cl)c(C(O)c2ccc(F)cc2Cl)c1-c1c(F)cccc1F (stereo not shown) [compound 137] | 100 | 100 | 100 | 100 |  |  |  | 
COc1nn(C)c(-c2c(F)cccc2F)c1C(O)c1c(F)ccc(F)c1F (stereo not shown) [compound 138] |  |  |  |  | 55* % | 16* % | 66* % | 93* %
COc1nn(C)c(-c2c(F)cccc2F)c1C(O)c1c(F)ccc(F)c1Cl (stereo not shown) [compound 139] |  |  |  |  | 80* % | 100* % | 83* % | 96* %
Cc1nn(C)c(-n2ccnc2C)c1C(O)c1ccc(F)cc1F (stereo not shown) [compound 146] | 17 | 0 | 18 | 0 |  |  |  | 
Cc1cc(F)ccc1C(O)c1c(C)nn(C)c1-n1ccnc1C (stereo not shown) [compound 147] |  |  |  |  | 17* % | 0* % | 0* % | 0* %
Cn1nc(Br)c(C(O)c2ccc(F)cc2Cl)c1-c1c(F)cccc1Cl (stereo not shown) [compound 148] | 100 | 100 | 100 | 99 |  |  |  | 
Cc1cc(F)ccc1C(O)c1c(Br)nn(C)c1-c1c(F)cccc1Cl (stereo not shown) [compound 149] | 100 | 100 | 100 | 100 |  |  |  | 
Cc1cc(F)ccc1C(O)c1c(C)nn(C)c1-n1ccnc1Cl (stereo not shown) [compound 150] | 9 | 8 | 0 | 0 |  |  |  | 
Cc1nn(C)c(-n2ccnc2Cl)c1C(O)c1ccc(F)cc1F (stereo not shown) [compound 151] | 99 | 16 | 0 | 43 |  |  |  | 
COc1nn(C)c(-c2c(F)cc(F)cc2F)c1C(O)c1ccc(F)cc1Cl (stereo not shown) [compound 152] |  |  |  |  | 100* % | 100* % | 100* % | 100* %

Structure (SMILES) | Test E2 rating (% disease control) [1, 5] [%] | Test A rating (% disease control) [2, 6] [%] | Test D rating (% disease control) [3, 5] [%] | Test F rating (% disease control) [4, 5] [%] | Test E2 rating (% disease control) [1, 7] | Test D rating (% disease control) [3, 7] | Test A rating (% disease control) [2, 7] | Test F rating (% disease control) [4, 7]
COc1nn(C)c(-c2c(F)cc(F)cc2F)c1C(O)c1ccc(F)cc1F (stereo not shown) [compound 153] |  |  |  |  | 100* % | 100* % | 100* % | 100* %
COc1nn(C)c(-c2c(F)cc(F)cc2F)c1C(O)c1ccccc1F (stereo not shown) [compound 154] | 100 | 100 | 100 | 100 |  |  |  | 
COc1nn(C)c(-c2c(F)cc(F)cc2F)c1C(O)c1c(F)cccc1Cl (stereo not shown) [compound 155] |  |  |  |  | 100* % | 100* % | 99* % | 99* %
COc1nn(C)c(-c2c(F)cccc2F)c1C(O)c1ccc(F)cc1F (stereo not shown) [compound 156] |  |  |  |  | 99* % | 100* % | 100* % | 99* %
Cc1cc(C)n(-c2c(C(O)c3ccc(F)cc3C)c(C)nn2C)n1 (stereo not shown) [compound 158] | 0 | 0 | 8 | 13 |  |  |  | 
Cc1cc(C)n(-c2c(C(O)c3ccc(F)cc3F)c(C)nn2C)n1 (stereo not shown) [compound 159] | 0 | 0 | 0 | 0 |  |  |  | 
COc1ccc(C(O)c2c(OC)nn(C)c2-c2c(F)cccc2F)c(F)c1 (stereo not shown) [compound 161] |  |  |  |  | 92* % | 100* % | 94* % | 90* %
COc1nn(C)c(-c2c(F)cc(Cl)cc2F)c1C(O)c1ccc(F)cc1Cl (stereo not shown) [compound 162] |  |  |  |  | 86* % | 100* % | 99* % | 64* %
Cn1nc(Br)c(C(O)c2ccc(Cl)cc2Cl)c1-c1c(F)cccc1F (stereo not shown) [compound 163] | 100 | 100 | 100 | 98 |  |  |  | 
Cn1nc(Br)c(C(O)c2ccc(F)cc2Br)c1-c1ccc(F)cc1Cl (stereo not shown) [compound 164] | 100 | 100 | 100 | 0 |  |  |  | 
Cc1cc(F)ccc1C(O)c1c(Br)nn(C)c1-c1c(F)cccc1F (stereo not shown) [compound 165] | 100 | 100 | 100 | 100 |  |  |  | 
Cc1nn(C)c(-c2c(F)cncc2F)c1C(O)c1ccc(F)cc1Cl (stereo not shown) [compound 166] |  |  |  |  | 99* % | 100* % | 99* % | 93* %
Cc1nn(C)c(-c2c(Cl)cncc2Cl)c1C(O)c1ccc(F)cc1F (stereo not shown) [compound 167] |  |  |  |  | 0* % | 58* % | 0* % | 0* %
Cc1nn(C)c(-c2c(F)cncc2F)c1C(O)c1ccc(F)cc1F (stereo not shown) [compound 168] |  |  |  |  | 88* % | 100* % | 21* % | 100* %
COc1ccc(C(O)c2c(C)nn(C)c2-c2ccc(F)cc2Cl)c(Cl)c1 (stereo not shown) [compound 169] |  |  |  |  | 88* % | 68* % | 0* % | 0* %
COc1ccc(C(O)c2c(C)nn(C)c2-c2c(F)cccc2Cl)c(Cl)c1 (stereo not shown) [compound 170] |  |  |  |  | 100* % | 100* % | 100* % | 98* %
COc1cc(F)c(-c2c(C(O)c3ccc(F)cc3Cl)c(C)nn2C)c(F)c1 (stereo not shown) [compound 171] |  |  |  |  | 100* % | 100* % | 100* % | 89* %

From patent publication US8754115B2, “Fungicidal pyrazoles” (E I du Pont de Nemours and Company, priority 2010, dated 2014)
